This passage reports IC50 and inhibition in vivo results from ChEMBL document CHEMBL5241062, “Recent advances of dual FGFR inhibitors as a novel therapy for cancer” (Eur J Med Chem, 2021).

Test [1] deals with T1, Receptor-type tyrosine-protein kinase FLT3 (Homo sapiens, UniProt P36888).
T1 sequence (P36888 whole entry): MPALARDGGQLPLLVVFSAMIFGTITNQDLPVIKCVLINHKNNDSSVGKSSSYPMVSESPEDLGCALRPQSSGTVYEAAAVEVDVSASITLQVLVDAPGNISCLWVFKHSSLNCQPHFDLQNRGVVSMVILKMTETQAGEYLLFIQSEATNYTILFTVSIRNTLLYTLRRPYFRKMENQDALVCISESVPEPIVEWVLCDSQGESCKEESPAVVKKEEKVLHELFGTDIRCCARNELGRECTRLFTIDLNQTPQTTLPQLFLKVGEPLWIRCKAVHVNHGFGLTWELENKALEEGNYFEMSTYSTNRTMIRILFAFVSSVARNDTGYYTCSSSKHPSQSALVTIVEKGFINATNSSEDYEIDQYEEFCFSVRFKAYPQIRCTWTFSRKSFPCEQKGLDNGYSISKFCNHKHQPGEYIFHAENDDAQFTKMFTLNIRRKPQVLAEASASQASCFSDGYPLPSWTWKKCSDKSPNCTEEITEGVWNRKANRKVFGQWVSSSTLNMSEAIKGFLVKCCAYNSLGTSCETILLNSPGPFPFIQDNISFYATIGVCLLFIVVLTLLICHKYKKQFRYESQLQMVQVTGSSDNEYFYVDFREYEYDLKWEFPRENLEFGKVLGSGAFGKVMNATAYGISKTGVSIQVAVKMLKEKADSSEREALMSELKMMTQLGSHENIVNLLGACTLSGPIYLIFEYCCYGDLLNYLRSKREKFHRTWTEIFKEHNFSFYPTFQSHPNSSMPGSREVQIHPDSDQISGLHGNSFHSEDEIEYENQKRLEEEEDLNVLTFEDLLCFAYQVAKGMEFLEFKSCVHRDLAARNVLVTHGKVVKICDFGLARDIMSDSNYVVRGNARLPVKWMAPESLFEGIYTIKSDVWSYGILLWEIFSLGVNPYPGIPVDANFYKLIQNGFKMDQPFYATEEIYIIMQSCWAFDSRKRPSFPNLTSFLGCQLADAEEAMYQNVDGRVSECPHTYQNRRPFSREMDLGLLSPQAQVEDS
Description: Inhibition of His tagged recombinant human FLT3 (564 to 958 residues) expressed in baculovirus expression system incubated for […] in the presence of ATP by Z'-LYTE kinase assay.

For test [2], the target named is Platelet-derived growth factor receptor alpha (Homo sapiens, UniProt P16234). The experiment in a line: Inhibition of PDGFRalpha (unknown origin) incubated for […] in the presence of ATP by Z'-LYTE kinase assay.
Test [3] concerns NCI-H1581. Description: Antitumor activity against human NCI-H1581 cells assessed as tumor growth inhibition at 50 mg/kg, po administered for 14 days relative to control. In kind it is functional. To be noted: NCI-H1581, 336 h, time 14 day, read-out: TGI.
Test [4] has as its target T2, Epidermal growth factor receptor (Homo sapiens, UniProt P00533). Description: Inhibition of EGFR (unknown origin) using biotin as substrate incubated for 1 hrs in the presence of ATP by HTRF assay.
Test [5] concerns the target T3, Fibroblast growth factor receptor 4 (Homo sapiens, UniProt P22455). Description: Inhibition of FGFR4 (unknown origin) using biotin as substrate incubated for 1 hrs in the presence of ATP by HTRF assay.
Test [6] has as its target T4, Vascular endothelial growth factor receptor 2 (Homo sapiens, UniProt P35968). Description: Inhibition of N-terminal 6-His tagged recombinant VEGFR2 Kinase domain (unknown origin) expressed in baculovirus expression system incubated for 30 mins in the presence of [33p]-ATP by scintillation counting analysis.
For test [7], the target named is T5, Fibroblast growth factor receptor 1 (Homo sapiens, UniProt P11362). The experiment in a line: Inhibition of N-terminal 6-His tagged recombinant FGFR1 Kinase domain (unknown origin) expressed in baculovirus expression system incubated for 30 mins in the presence of [33p]-ATP by scintillation counting analysis.
Test [8] addresses T6, Platelet-derived growth factor receptor beta (Homo sapiens, UniProt P09619). Description: Inhibition of N-terminal 6-His tagged recombinant PDGFRbeta Kinase domain (unknown origin) expressed in baculovirus expression system incubated for 30 mins in the presence of [33p]-ATP by scintillation counting analysis.
Test [9] concerns the target T5, Fibroblast growth factor receptor 1. Description: Inhibition of recombinant FGFR1 (unknown origin) incubated for 60 mins by ELISA analysis. (In general: An ELISA detects its analyte on a solid surface through an enzyme-linked reagent.)
In test [10] the target is T7, Fibroblast growth factor receptor 2 (Homo sapiens, UniProt P21802). The experiment in a line: Inhibition of recombinant FGFR2 (unknown origin) incubated for 60 mins by ELISA analysis.
Test [11] deals with T8, Fibroblast growth factor receptor 3 (Homo sapiens, UniProt P22607). Description: Inhibition of recombinant FGFR3 (unknown origin) incubated for 60 mins by ELISA analysis.
Test [12] addresses T9, Vascular endothelial growth factor receptor 1 (Homo sapiens, UniProt P17948). The experiment in a line: Inhibition of recombinant VEGFR1 (unknown origin) incubated for 60 mins by ELISA analysis.
Test [13] deals with T4, Vascular endothelial growth factor receptor 2. The experiment in a line: Inhibition of recombinant VEGFR2 (unknown origin) incubated for 60 mins by ELISA analysis.
For test [14], the target named is T6, Platelet-derived growth factor receptor beta. The experiment in a line: Inhibition of recombinant PDGFRbeta (unknown origin) incubated for 60 mins by ELISA analysis.
The target of test [15] is T5, Fibroblast growth factor receptor 1. Description: Inhibition of recombinant FGFR1 (unknown origin) in the presence of [p33]-ATP.
The target of test [16] is T7, Fibroblast growth factor receptor 2. Description: Inhibition of recombinant FGFR2 (unknown origin) in the presence of [p33]-ATP.
Test [17] deals with T8, Fibroblast growth factor receptor 3. Description: Inhibition of recombinant FGFR3 (unknown origin) in the presence of [p33]-ATP.
For test [18], the target named is T3, Fibroblast growth factor receptor 4. The experiment in a line: Inhibition of recombinant FGFR4 (unknown origin) in the presence of [p33]-ATP.
The target of test [19] is T9, Vascular endothelial growth factor receptor 1. Description: Inhibition of recombinant VEGFR1 (unknown origin) in the presence of [p33]-ATP.
Test [20] addresses T4, Vascular endothelial growth factor receptor 2. The experiment in a line: Inhibition of recombinant VEGFR2 (unknown origin) in the presence of [p33]-ATP.
Test [21] concerns the target Vascular endothelial growth factor receptor 3 (Homo sapiens, UniProt P35916). Description: Inhibition of recombinant VEGFR3 (unknown origin) in the presence of [p33]-ATP.
The target of test [22] is T10, Fibroblast growth factor receptor substrate 2 (Homo sapiens, UniProt Q8WU20).
T10 sequence (Q8WU20 whole entry): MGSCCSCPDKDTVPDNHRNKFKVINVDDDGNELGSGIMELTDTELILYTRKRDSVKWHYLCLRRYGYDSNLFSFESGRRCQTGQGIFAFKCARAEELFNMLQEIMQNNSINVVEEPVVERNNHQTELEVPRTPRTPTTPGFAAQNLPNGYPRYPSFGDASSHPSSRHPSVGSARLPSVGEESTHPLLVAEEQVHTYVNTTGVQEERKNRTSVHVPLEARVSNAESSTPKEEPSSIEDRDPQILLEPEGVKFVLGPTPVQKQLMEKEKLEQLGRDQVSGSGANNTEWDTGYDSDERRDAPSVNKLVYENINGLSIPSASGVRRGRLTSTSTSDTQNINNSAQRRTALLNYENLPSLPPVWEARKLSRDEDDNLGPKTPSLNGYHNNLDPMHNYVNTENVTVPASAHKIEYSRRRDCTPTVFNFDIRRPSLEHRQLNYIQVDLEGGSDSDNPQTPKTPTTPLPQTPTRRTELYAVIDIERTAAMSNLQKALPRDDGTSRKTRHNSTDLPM
The experiment in a line: Inhibition of FRS2 phosphorylation at Tyr196 residue in human NCI-H1581 cells incubated for 20 mins by electrochemiluminescence method. The test is classed as cell-based.

Test [23] has as its target T10, Fibroblast growth factor receptor substrate 2. The experiment in a line: Inhibition of FRS2 phosphorylation at Tyr196 residue in human SNU-16 cells incubated for 20 mins by electrochemiluminescence method. In kind it is cell-based.
The target is the same in test [24]. The experiment in a line: Inhibition of FRS2 phosphorylation at Tyr196 residue in human RT-4 cells incubated for 20 mins by electrochemiluminescence method. The test is classed as cell-based.
Test [25] relates to RT-4. Description: Antitumor activity against human RT-4 cells xenografted in mouse assessed as tumor growth inhibition at 20 mg/kg/day, po administered for 21 days relative to control. In kind it is functional. The conditions noted are these: RT-4, 504 h, time 21 day, read-out: TGI. On the technique in general: In xenograft studies the graft and the host belong to different species.

The subject of test [26] is RT-4. The experiment in a line: Antitumor activity against human RT-4 cells xenografted in mouse assessed as tumor growth inhibition at 40 mg/kg/day, po administered for 21 days relative to control. In kind it is functional. The conditions noted are these: RT-4, 504 h, time 21 day, read-out: TGI.
Test [27] addresses T5, Fibroblast growth factor receptor 1. The experiment in a line: Inhibition of FGFR1 (unknown origin) by Z'-LYTE Kinase assay.
Test [28] deals with T7, Fibroblast growth factor receptor 2. The experiment in a line: Inhibition of FGFR2 (unknown origin) by Z'-LYTE Kinase assay.
The target in test [29] is T8, Fibroblast growth factor receptor 3. The experiment in a line: Inhibition of FGFR3 (unknown origin) by Z'-LYTE Kinase assay.
Test [30] addresses T3, Fibroblast growth factor receptor 4. The experiment in a line: Inhibition of FGFR4 (unknown origin) by Z'-LYTE Kinase assay.
The target in test [31] is T2, Epidermal growth factor receptor. Description: Inhibition of EGFR (unknown origin) by Z'-LYTE Kinase assay.

T5 sequence (P11362 whole entry, the tested form may be a part): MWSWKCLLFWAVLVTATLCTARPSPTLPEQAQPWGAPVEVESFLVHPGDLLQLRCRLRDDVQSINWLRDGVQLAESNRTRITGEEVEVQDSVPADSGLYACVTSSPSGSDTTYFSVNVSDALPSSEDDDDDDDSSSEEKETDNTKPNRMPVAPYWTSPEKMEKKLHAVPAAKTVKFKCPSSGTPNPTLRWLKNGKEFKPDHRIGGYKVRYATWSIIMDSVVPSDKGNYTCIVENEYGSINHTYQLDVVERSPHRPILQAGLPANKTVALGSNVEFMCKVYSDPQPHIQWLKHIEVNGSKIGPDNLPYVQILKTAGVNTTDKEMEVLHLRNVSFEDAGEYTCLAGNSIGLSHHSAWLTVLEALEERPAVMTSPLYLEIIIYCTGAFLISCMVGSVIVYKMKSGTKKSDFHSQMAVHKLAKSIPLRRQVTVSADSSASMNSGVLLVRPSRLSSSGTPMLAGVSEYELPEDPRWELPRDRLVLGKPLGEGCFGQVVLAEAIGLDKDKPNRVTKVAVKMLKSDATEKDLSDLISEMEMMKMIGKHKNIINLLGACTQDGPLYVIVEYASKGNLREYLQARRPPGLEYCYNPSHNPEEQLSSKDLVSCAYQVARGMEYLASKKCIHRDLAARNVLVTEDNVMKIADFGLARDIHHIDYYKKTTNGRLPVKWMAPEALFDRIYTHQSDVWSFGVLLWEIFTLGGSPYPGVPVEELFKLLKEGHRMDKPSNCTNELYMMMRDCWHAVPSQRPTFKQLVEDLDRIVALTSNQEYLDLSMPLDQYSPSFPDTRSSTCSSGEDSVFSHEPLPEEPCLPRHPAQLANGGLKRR
T3 sequence (P22455 whole entry, the tested form may be a part): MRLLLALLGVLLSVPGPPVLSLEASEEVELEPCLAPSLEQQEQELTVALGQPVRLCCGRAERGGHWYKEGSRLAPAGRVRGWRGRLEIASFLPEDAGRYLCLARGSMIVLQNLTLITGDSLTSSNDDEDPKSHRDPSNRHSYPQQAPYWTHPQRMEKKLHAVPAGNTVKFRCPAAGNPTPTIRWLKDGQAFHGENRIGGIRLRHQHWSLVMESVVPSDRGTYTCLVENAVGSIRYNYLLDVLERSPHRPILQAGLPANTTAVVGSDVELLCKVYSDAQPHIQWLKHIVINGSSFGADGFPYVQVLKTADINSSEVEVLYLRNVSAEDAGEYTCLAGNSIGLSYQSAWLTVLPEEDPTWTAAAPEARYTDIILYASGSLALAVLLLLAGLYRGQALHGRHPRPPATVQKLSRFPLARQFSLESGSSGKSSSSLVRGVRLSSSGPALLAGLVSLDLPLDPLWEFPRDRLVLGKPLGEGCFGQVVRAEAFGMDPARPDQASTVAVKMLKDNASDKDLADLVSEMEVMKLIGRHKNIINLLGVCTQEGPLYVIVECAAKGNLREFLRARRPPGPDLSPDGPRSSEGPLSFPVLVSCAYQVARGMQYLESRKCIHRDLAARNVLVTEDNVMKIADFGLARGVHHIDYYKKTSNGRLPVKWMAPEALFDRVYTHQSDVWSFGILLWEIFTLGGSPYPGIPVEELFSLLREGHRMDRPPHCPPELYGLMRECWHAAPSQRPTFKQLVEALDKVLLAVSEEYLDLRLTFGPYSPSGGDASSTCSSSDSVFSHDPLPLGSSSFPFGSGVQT
T8 sequence (P22607 whole entry): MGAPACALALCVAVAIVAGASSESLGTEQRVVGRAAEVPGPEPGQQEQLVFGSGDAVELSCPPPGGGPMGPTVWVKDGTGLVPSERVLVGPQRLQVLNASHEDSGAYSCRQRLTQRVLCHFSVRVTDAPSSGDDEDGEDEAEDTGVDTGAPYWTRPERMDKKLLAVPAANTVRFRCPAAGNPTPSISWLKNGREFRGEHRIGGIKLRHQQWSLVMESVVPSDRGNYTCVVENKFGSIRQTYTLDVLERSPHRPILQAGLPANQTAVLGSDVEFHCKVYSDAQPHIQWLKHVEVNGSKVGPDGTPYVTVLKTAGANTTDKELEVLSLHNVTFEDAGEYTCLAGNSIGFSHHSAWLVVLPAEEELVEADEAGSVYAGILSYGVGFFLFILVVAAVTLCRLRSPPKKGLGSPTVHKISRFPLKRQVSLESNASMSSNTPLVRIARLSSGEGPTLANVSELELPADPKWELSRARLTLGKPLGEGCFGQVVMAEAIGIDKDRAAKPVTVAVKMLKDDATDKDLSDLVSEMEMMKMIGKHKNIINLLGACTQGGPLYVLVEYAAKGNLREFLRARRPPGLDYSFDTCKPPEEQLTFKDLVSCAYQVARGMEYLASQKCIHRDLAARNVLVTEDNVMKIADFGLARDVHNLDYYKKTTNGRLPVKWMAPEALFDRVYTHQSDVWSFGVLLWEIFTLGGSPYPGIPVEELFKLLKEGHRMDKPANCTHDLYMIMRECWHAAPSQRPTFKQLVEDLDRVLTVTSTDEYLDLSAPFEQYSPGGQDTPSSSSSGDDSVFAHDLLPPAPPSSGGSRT
T7 sequence (P21802 whole entry): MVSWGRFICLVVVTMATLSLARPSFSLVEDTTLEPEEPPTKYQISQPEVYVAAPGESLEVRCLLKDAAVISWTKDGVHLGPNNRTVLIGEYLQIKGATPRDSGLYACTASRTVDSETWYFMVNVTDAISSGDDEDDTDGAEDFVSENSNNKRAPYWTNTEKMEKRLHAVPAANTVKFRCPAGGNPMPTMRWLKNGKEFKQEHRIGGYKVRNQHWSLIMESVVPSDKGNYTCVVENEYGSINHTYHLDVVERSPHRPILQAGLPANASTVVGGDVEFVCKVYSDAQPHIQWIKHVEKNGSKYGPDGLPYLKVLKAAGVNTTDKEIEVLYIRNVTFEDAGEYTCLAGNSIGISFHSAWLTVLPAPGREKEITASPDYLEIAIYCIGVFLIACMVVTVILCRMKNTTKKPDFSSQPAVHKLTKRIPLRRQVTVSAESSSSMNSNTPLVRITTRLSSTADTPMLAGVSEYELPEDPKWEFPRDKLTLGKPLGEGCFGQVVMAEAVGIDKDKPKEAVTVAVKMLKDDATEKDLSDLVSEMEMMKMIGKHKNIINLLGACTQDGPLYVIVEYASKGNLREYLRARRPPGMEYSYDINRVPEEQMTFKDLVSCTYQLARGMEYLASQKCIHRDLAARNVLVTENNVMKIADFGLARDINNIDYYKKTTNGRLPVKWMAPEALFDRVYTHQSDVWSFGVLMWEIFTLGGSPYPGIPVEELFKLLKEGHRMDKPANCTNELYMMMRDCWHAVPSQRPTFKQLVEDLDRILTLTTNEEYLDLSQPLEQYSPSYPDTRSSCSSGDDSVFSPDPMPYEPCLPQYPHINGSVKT
T4 sequence (P35968 whole entry, the tested form may be a part): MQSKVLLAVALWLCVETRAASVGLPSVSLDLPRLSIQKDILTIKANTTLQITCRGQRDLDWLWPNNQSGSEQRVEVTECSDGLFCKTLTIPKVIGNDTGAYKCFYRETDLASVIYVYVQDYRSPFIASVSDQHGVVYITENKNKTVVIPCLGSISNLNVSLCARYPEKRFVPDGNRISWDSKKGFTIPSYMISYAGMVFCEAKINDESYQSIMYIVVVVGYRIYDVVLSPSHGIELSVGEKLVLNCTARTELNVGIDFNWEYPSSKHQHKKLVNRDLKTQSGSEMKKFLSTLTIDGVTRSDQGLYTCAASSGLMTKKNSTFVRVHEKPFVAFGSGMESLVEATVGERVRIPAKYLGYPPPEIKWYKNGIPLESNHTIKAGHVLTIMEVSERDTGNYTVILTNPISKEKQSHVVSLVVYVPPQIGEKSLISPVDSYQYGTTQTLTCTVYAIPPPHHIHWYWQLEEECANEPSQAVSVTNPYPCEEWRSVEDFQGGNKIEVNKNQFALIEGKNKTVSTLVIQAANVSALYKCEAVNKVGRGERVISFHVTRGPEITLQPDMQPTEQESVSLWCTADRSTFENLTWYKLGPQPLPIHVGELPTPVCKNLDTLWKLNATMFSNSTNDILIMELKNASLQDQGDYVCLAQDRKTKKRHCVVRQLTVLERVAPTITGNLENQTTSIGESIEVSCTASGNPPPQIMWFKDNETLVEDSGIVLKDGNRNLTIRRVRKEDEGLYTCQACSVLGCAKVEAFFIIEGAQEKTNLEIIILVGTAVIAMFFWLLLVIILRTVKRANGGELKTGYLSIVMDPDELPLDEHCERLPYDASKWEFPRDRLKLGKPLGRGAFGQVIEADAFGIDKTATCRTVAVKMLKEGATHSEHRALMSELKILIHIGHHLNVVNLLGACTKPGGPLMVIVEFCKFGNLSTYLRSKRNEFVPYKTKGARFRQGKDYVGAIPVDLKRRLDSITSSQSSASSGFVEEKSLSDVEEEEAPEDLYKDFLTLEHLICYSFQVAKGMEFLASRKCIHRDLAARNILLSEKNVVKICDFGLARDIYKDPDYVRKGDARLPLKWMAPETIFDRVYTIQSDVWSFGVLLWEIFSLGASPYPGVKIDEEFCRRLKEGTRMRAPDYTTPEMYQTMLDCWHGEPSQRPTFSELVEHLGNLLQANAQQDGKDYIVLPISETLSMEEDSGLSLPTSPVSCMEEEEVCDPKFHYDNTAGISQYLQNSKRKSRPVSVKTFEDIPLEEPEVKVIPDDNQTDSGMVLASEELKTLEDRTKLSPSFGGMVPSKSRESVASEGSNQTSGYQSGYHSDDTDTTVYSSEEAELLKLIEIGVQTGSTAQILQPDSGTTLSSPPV

What is called IC50 is the concentration that inhibits the measured activity by half. With `Cc1ccc(C(=O)Nc2ccc(CN3CCN(C)CC3)c(C(F)(F)F)c2)cc1C#Cc1cnc2[nH]ncc2c1` [OLVEREMBATINIB], the IC50 in test [1] turned out to be 0.00133 µM; in test [2], 0.00208 µM.
Take `COc1cc(OC)c(Cl)c(-c2ccc3c(NC(=O)c4ccc(N5CCNC(C)(C)C5)cc4)n[nH]c3n2)c1Cl` [SEGIGRATINIB]: the inhibition in vivo at 50 mg/kg in [3] came out at 96.4%.
Turning to `COc1cc2ncnc(Oc3ccc(NC(=O)Nc4cccc(C(F)(F)F)c4)c4ccccc34)c2cc1OC`, the IC50 amounted to 0.0862 µM in test [4] and 0.0839 µM in [5].
Consider `O=C(O)CCc1c(/C=C2\C(=O)Nc3ccc(F)cc32)[nH]c2c1C(=O)CCC2`, for which the IC50 worked out at 0.025 µM in [6], 0.26 µM in test [7] and 0.042 µM in [8].
As to `CNC(=O)c1cccc2cc(Oc3ccnc(NC(=O)c4ccc(N5CCN(CCO)CC5)cc4)c3)ccc12`, the IC50 in test [9] amounted to 0.0018 µM; in [10], 0.0019 µM; in test [11], 0.0069 µM; in test [12], 0.0056 µM; in [13], 0.0012 µM; in test [14] it was 0.0078 µM.
As to `Cn1cc(-c2ccc3c(c2)ncn3-c2cc(NS(=O)(=O)C3CC3)cc(-c3ccc(F)cc3F)c2)cn1`, the IC50 in test [15] amounted to 0.011 µM; in test [16], 0.016 µM; in [17], 0.006 µM; in test [18], 0.035 µM; in test [19], 0.026 µM; in test [20], 0.009 µM. Moreover, the IC50 worked out at 0.005 µM in test [21], 0.093 µM in [22], 0.059 µM in test [23] and 0.089 µM in [24]. The inhibition in vivo at 20 mg/kg/day in test [25] stood at 37%. The inhibition in vivo at 40 mg/kg/day in test [26] was found to be 92%.
Turning to `C=CC(=O)Nc1ccc(CN(C(=O)Nc2c(Cl)c(OC)cc(OC)c2Cl)c2cc(Nc3ccc(N4CCN(C)CC4)cc3)ncn2)cc1`, the IC50 in [27] is 0.003 µM; in test [28], 0.021 µM; in [29], 0.031 µM; in [30], 0.035 µM; in [31], 0.043 µM.
